According to patent US11827580B2, “Aminotetraline activators of serotonin receptors” (ATAI Life Sciences AG, priority 2021, dated 2023):
Counter-ions that a name gives are not always drawn.

Key:
5HT2A [1] = molecular target: T1, 5HT2A (Homo sapiens, UniProt P28223); assay: 5HT2A activation (%) max at two concentrations (Table 1); assay type: cell-based; conditions: for 5HT2A activation (%) max @ 03 μM: 03 μM [sic]; for 5HT2A activation (%) max @ 30 μM: 30 μM (first value of the cell)
Human 5-HT1A receptor = molecular target: T2, Human 5-HT1A receptor (Homo sapiens, UniProt P08908); assay: cAMP secondary messenger pathway assay (HitHunter cAMP, Gi agonist mode); assay type: cell-based; conditions: CHO cells, forskolin present, read-out: EC50 5-HT1A (Gi signaling)
T2 construct: host or cells: CHO (hamster), stably transfected, cAMP Hunter cell line
T2 sequence (P08908 1-422): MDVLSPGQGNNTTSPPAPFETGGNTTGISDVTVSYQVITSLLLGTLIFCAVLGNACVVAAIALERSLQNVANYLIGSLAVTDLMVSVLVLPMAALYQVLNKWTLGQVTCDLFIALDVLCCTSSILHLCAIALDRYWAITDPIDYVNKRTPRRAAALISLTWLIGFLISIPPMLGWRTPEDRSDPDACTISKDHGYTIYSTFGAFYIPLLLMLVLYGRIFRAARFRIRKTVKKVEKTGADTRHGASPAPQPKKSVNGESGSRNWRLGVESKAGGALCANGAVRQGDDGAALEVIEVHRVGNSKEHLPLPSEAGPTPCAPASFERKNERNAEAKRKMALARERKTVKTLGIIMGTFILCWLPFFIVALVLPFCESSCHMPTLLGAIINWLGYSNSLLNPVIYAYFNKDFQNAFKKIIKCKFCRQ
Description: cAMP Secondary Messenger Pathway Assay Method (Performed by DiscoveRx Eurofins)
DiscoverX has developed a panel of cell lines stably expressing non-tagged GPCRs that signal through cAMP. Hit Hunter® cAMP assays monitor the activation of a GPCR via Gi and Gs secondary messenger signaling in a homogenous, non-imaging assay format using a technology developed by DiscoverX called Enzyme Fragment Complementation (EFC) with β-galactosidase (β-Gal) as the functional reporter. The enzyme is split into two complementary portions: EA for Enzyme Acceptor and ED for Enzyme Donor. ED is fused to cAMP and in the assay competes with cAMP generated by cells for binding to a cAMP-specific antibody. Active β-Gal is formed by complementation of exogenous EA to any unbound ED-cAMP. Active enzyme can then convert a chemiluminescent substrate, generating an output signal detectable on a standard microplate reader.
cAMP Hunter cell lines were expanded from freezer stocks according to standard procedures. Human 5-HT1A receptor-mediated cAMP signaling was evaluated in stably transfected hamster-derived CHO cells. Cells were seeded in a total volume of 20 μL into white walled, 384-well microplates and incubated at 37° C. overnight. cAMP modulation was determined using the DiscoverX HitHunter cAMP XS+ assay. […]
Compound activity was analyzed using CBIS data analysis suite (ChemInnovation, CA). […]

Human 5-HT2B receptor = molecular target: T3, Human 5-HT2B receptor (Homo sapiens, UniProt P41595); assay: Calcium mobilization assay (Gq signaling); assay type: cell-based
T3 construct: host or cells: U2OS or HEK (the text names 5-HT2B under both)
Description: (§1) Calcium Mobilization Assay Method (Performed by DiscoveRx Eurofins)
(§2) The Calcium No-Wash^PLUS assay monitors the activation of a GPCR via Gq secondary messenger signaling in a live cell, non-imaging assay format. Calcium mobilization in PathHunter® cell lines or other cell lines stably expressing Gq-coupled GPCRs is monitored using a calcium-sensitive dye that is loaded into cells. GPCR activation by a compound results in the release of calcium from intracellular stores and an increase in dye fluorescence that is measured in real-time.
(§3) Cell lines expressing the GPCR of interest were expanded from freezer stocks according to standard procedures. Human 5-HT2A, 5-HT2B or 5-HT2C receptor-mediated calcium mobilization was evaluated in stably transfected human-derived U2OS (5-HT2A or 5-HT2B) or HEK (5-HT2B) cells. Cells were seeded in a total volume of 20 μL into black-walled, clear-bottom, Poly-D-lysine coated 384-well microplates and incubated at 37° C. overnight prior to testing. […]
(§4) Intermediate dilution of sample stocks was performed to generate 4× sample in assay buffer. Compound agonist activity was measured on a FLIPR Tetra (MDS). Calcium mobilization was monitored for 2 minutes and 10 μL 4× sample in HBSS/20 mM Hepes was added to the cells seconds into the assay.
(§5) Compound activity data was analyzed using CBIS data analysis suite (ChemInnovation, CA). […]

Human 5-HT2C receptor = molecular target: T4, Human 5-HT2C receptor (Homo sapiens, UniProt P28335); assay: Calcium mobilization assay (Gq signaling); assay type: cell-based
T4 construct: host or cells: U2OS or HEK (not assigned to 5-HT2C in the text)
T4 sequence (P28335 33-458): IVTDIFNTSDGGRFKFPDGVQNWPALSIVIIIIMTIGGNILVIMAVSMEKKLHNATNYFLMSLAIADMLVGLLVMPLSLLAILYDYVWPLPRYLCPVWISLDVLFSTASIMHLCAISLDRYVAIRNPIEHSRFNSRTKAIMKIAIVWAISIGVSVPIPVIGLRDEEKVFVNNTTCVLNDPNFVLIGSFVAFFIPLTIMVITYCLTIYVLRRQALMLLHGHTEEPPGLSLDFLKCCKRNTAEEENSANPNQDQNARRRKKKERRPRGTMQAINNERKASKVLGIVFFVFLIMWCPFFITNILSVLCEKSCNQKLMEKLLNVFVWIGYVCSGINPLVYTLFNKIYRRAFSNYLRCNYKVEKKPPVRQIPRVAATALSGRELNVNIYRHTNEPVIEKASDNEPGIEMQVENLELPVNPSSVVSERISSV
Description: as §1, §2, §3, §4, §5

5-HT receptors = conditions: cited from earlier work
[2] = in comparison to mescaline or 2,5-dimethoxy-4-methylphenylisopropylamine at similar doses; cited from earlier work
5HT2A [3] = molecular target: T1, 5HT2A; assay: Calcium mobilization assay (Gq signaling); assay type: cell-based; set-up: host or cells: U2OS (human), stably transfected
Description: as §1, §2
Cell lines expressing the GPCR of interest were expanded from freezer stocks according to standard procedures. Human 5-HT2A, 5-HT2B or 5-HT2C receptor-mediated calcium mobilization was evaluated in stably transfected human-derived U2OS (5-HT2A or 5-HT2B) or HEK (5-HT2B) cells. Cells were seeded in a total volume of 20 μL into black-walled, clear-bottom, Poly-D-lysine coated 384-well microplates and incubated at 37° C. overnight prior to testing.
Assays were performed in 1× Dye Loading Buffer consisting of 1× Dye, 1× Additive A and 2.5 mM Probenecid in HBSS/20 mM Hepes. Probenicid was prepared fresh. Cells were loaded with dye prior to testing. Media was aspirated from cells and replaced with 20 μL Dye Loading Buffer. Cells were incubated for 45 minutes at room temperature.
For agonist determination, cells were incubated with sample to induce response. After dye loading, cells were removed from the incubator and 10 μL HBSS/20 mM Hepes was added. 3× vehicle was included in the buffer when performing agonist dose curves to define the EC80 for subsequent antagonist assays. Cells were incubated for 30 minutes at room temperature in the dark to equilibrate plate temperature.
as §4
Compound activity data was analyzed using CBIS data analysis suite (ChemInnovation, CA). For agonist mode assays, percentage activity is calculated using the following formula: % Activity=100%×(mean RFU of test sample−mean RFU of vehicle control)/(mean MAX RFU control ligand−mean RFU of vehicle control).
In these studies, the MAX RFU was generated by using 0.1 μM serotonin for the calcium mobilization assay.

5HT2A [4] = molecular target: T1, 5HT2A; assay: PathHunter β-Arrestin assay; assay type: cell-based; set-up: host or cells: U2OS (human), stably transfected
Description: Arrestin Pathway (Performed by DiscoverX Eurofins)
The PathHunter® β-Arrestin assay monitors the activation of a GPCR in a homogenous, non-imaging assay format using a technology developed by DiscoverX called Enzyme Fragment Complementation (EFC) with β-galactosidase (β-Gal) as the functional reporter. […] EA is fused to β-Arrestin and PK is fused to the GPCR of interest. When the GPCR is activated and β-Arrestin is recruited to the receptor, ED and EA complementation occurs, restoring β-Gal activity which is measured using chemiluminescent PathHunter® Detection Reagents.
PathHunter cell lines (DiscoveRx Eurofins) were expanded from freezer stocks according to standard procedures. Human 5-HT2A receptor-mediated GPCR β-arrestin activity was evaluated in stably transfected human-derived U2OS cells. Cells were seeded in a total […] into white walled, 384-well microplates and incubated at 37° C. overnight prior to testing.
For agonist determination, cells were incubated with sample to induce response. Intermediate dilution of sample stocks was performed to generate 5× sample in assay buffer. 5 μL of 5× sample was added to cells and incubated at 37° C. or room temperature for 120 minutes. Vehicle concentration was 1%.
β-Arrestin assay signal was generated through a single addition of 12.5 or 15 μL (50% v/v) of PathHunter Detection reagent cocktail, followed by a one hour incubation at room temperature. Microplates were read following signal generation with a PerkinElmer Envision™ instrument for chemiluminescent signal detection.
Compound activity was analyzed using CBIS data analysis suite (ChemInnovation, CA). For agonist mode assays, percentage activity was calculated using the following formula: % Activity=100%×(mean RLU of test sample−mean RLU of vehicle control)/(mean MAX control ligand−mean RLU of vehicle control).
In these studies, the MAX control ligand response was generated using 1 μM serotonin.

T1 sequence (P28223 whole entry): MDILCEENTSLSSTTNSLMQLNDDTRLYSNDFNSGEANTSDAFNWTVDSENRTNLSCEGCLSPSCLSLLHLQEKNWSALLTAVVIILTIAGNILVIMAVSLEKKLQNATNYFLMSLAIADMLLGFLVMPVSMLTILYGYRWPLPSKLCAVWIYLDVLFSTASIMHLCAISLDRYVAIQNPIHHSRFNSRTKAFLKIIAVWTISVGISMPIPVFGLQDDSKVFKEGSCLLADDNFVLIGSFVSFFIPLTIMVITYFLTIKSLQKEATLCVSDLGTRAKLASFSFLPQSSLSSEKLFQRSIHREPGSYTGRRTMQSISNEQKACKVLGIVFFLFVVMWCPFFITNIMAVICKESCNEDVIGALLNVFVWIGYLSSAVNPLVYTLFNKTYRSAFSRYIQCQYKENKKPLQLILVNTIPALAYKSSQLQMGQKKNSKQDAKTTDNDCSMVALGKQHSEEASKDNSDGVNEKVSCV
T3 sequence (P41595 whole entry): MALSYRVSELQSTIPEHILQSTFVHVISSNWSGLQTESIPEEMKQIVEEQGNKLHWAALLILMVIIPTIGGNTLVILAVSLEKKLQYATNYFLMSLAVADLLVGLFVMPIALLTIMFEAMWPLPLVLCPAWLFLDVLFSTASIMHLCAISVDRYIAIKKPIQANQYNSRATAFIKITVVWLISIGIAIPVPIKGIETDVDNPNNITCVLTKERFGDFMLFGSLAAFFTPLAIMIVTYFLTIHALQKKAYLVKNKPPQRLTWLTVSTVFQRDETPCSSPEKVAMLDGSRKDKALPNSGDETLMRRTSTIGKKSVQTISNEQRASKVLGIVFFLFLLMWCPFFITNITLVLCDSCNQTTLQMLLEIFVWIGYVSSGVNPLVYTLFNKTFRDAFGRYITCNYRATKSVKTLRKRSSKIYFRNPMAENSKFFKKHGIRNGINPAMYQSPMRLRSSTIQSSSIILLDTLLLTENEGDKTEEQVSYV

Compound | 5HT2A activation (%) max @ 03 μM (5HT2A [1]) [%] | 5HT2A activation (%) max @ 30 μM (5HT2A [1]) [%] | EC50 (Human 5-HT1A receptor) [nM] | EC50 (Human 5-HT2B receptor) [nM] | EC50 (Human 5-HT2C receptor) [nM] | activity at 5-HT receptors (5-HT receptors) | common psychedelic side effects in rats [2] | agonism of 5-HT2A Gq-mediated signaling (5HT2A [3]) | potency bias, 5-HT2A Gq-mediated signaling versus β-arrestin recruitment (5HT2A [3]; FIG. 1B) [fold] | increase in potency at 5-HT2A compared to 5-HT2B (5HT2A [3]; Gq signaling, FIG. 1A) [fold] | EC50 (5HT2A [3]; calcium mobilization) [nM] | Emax (5HT2A [3]; compared to the maximum serotonin response, read-out: max activation of 5-HT2A Gq-mediated signaling) [%] | agonism / potency for β-arrestin recruitment at 5-HT2A (5HT2A [4]) | EC50 (5HT2A [4]; U2OS cells, read-out: EC50 5-HT2A (β-arrestin signaling)) [nM] | Emax (5HT2A [4]; read-out: maximum efficacy levels (partial agonism), pathway not given, β-arrestin by context) [%]
CNC1CCc2c(OC)ccc(OC)c2C1 (stereo not shown) [Compound 1-4, 5,8-dimethoxy-N-methyl-1,2,3,4-tetrahydronaphthalen-2-amine hydrochloride] | 8.5 | 20.3 | – | – | – | – | – | – | – | – | – | – | – | – | –
COc1ccc(OC)c2c1CCCC2CN (stereo not shown) [Compound 3-1, (5,8-dimethoxy-1,2,3,4-tetrahydronaphthalen-1-yl)methanamine hydrochloride] | 1.5 | 53 | – | – | – | – | – | – | – | – | – | – | – | – | –
COc1cc(C)c(OC)c2c1CC(N)CC2 (stereo not shown) [Compound 1-2, 5,8-dimethoxy-6-methyl-1,2,3,4-tetrahydronaphthalen-2-amine] | 60.9 | 81.9 | 438 | 315 | 4.8 | has activity at 5-HT receptors | failed to elicit common psychedelic side effects | full-agonism | ~10 | ~8 | 38.8 | 97 | partial agonism | 386 | 66
